The test system of test [1] is anti-HPV B19 antibodies. Put plainly: Secondary screening: reactivity of free synthetic peptides with anti-HPV B19 antibodies. Particulars: for Reactivity with Anti-HPV B19 Antibodies: free peptides, symbols ⓞ, X printed without a legend. In kind it is binding. An excerpt:
A secondary screening would be carried out to make clear the reactivity of a free peptide with the anti-HPV B19 antibodies. In this respect, the synthesis of such a free peptide should be performed while taking, into consideration, the degree of difficulty in synthesizing and purifying the corresponding amino acid sequence. Moreover, the number of amino acid residues in the free peptide should be determined after inquiring into possible structures of each amino acid sequence, i.e., the result of the secondary structure-determination using the computer program.
The foregoing primary screening was performed by preparing peptides each equally having 15 amino acid residues therein, but the secondary screening was carried out while preparing various peptides having variously changed amino acid residue numbers due to the reasons discussed above and the inventors have narrowed down to 6 amino acid sequences listed in the following Table 2.
Finally, 6 kinds of free peptides corresponding to the foregoing 6 amino acid sequences were synthesized and were inspected for the reactivity with the anti-HPV B19 antibodies. […]

Test [2] deals with anti-HPV B19 antibody (IgG). As to the kind of experiment: Detection Example 1: ELISA detection of immunoglobulin G (IgG) in patient serum on immobilized peptide. As to conditions: Fig. 4. The class given is binding, human. The protocol:
In this example, the serum obtained from a patient infected with HPV B19 was inspected for the presence of an IgG antibody by the ELISA method. A microtiter plate made of polystyrene was used as a solid support. A peptide solution whose peptide concentration was adjusted to 10µg/mℓ with a phosphate buffer was dispensed to the wells (100µℓ each) of the plate and then the peptide was allowed to be immobilized at room temperature overnight to give an immobilized solid support. The immobilized solid support was then treated with blocking agent for inhibiting any non-specific adsorption reaction of unlinked sites present on the solid support with the IgG antibody. […]
The microtiter plate was washed 6 times with a phosphate buffer, then horseradish peroxidase (HRP)-labeled anti-human IgG antibody which was diluted 1000 times with the same buffer was dispensed to the wells (100µℓ each) and they were reacted at 37°C for one hour. […] The colored product was inspected for the presence of HRP through determination of absorbance at a wavelength of 492 nm using a microtiter plate reader.
The peptide of Formula (1) was used in this determination. […] In Fig. 4, the time after onset of illness is plotted as abscissa and the absorbance as ordinate.

For test [3], the system named is anti-HPV B19 antibodies. Put plainly: Detection Example 3: determination of IgG with peptide immobilized through biotin-avidin affinity. In kind it is binding, human. Particulars: biotinylated peptide on avidin plate, Fig. 6. The protocol: This Example is given for illustrating a method in which the immobilized solid support is prepared by immobilizing peptide onto the solid support through the use of the biotin-avidin affinity to thus determine the IgG antibody. First of all, a 250 µg/mℓ solution of biotin-N-hydroxysuccinimide ester (NHS-Biotin) was dispensed to wells (100µℓ each) of a microtiter plate of polystyrene carrying, on the surface, amino groups and the reaction was continued at 37 °C for 2 hours. Then the microtiter plate was washed 6 times with a phosphate buffer, a 50µg/mℓ solution of avidin was dispensed to the wells (100µℓ each) and they were reacted at 37 °C for one hour.
The biotinylated peptide used herein was obtained by coupling NHS-Biotin to the N-terminal of the protected peptide prepared in the same manner used in the foregoing Peptide Preparation Example followed by removal of the protective groups and purification carried out according to the same manner used in the foregoing Peptide Preparation Example. The resulting biotinylated peptide was washed 6 times with a phosphate buffer and subjected to blocking and assay according to the same method used in Detection Example 2.
The peptide of Formula (1) was used in this determination. In addition, the peptides of Formulae (2) and (3) were also used as comparative peptides. The results thus obtained are plotted on Fig. 6. […]

Test [4] concerns IgM among the anti-HPV antibodies. Put plainly: Detection Example 2: ELISA detection of immunoglobulin M (IgM) in patient serum on immobilized peptide. In kind it is binding. Particulars: ELISA with HRP-labeled human IgM antibody; Fig. 5. An excerpt:
In this example, the serum obtained from a patient infected with HPV B19 was inspected for the presence of an IgM antibody by the ELISA method. The same procedures used in Detection Example 1 were repeated to give an immobilized solid support and to carry out the same assay except that HRP-labeled human IgM antibody was substituted for the HRP-labeled human IgG antibody used in Detection Example 1.
The peptide of Formula (1) was used in this determination. In addition, the peptides of Formulae (2) and (3) were also used as comparative peptides. The results thus obtained are plotted on Fig. 5.
In general terms: In an ELISA, binding on a coated surface is turned into a signal by an enzyme label.

Take `CC(C)C[C@H](N)C(=O)N[C@@H](CCCNC(=N)N)C(=O)N1CCC[C@H]1C(=O)NCC(=O)N1CCC[C@H]1C(=O)N[C@H](C(=O)N[C@@H](CO)C(=O)N[C@@H](CCC(N)=O)C(=O)N1CCC[C@H]1C(=O)N[C@@H](Cc1ccc(O)cc1)C(=O)N[C@@H](Cc1c[nH]cn1)C(=O)N[C@@H](Cc1c[nH]cn1)C(=O)N[C@@H](Cc1c[nH]c2ccccc12)C(=O)N[C@@H](CC(=O)O)C(=O)N[C@H](C(=O)N[C@@H](CC(=O)O)C(=O)N[C@@H](CCCCN)C(=O)O)[C@@H](C)O)C(C)C` [Formula (3), H-Leu-Arg-Pro-Gly-Pro-Val-Ser-Gln-Pro-Tyr-His-His-Trp-Asp-Thr-Asp-Lys-OH, reference compound]: in test [1], the “Reactivity with Anti-HPV B19 Antibodies” value was “○”.
As for `CC[C@H](C)[C@H](NC(=O)CNC(=O)[C@@H](NC(=O)[C@@H](NC(=O)[C@H](Cc1ccc(O)cc1)NC(=O)[C@H](CCCCN)NC(=O)[C@H](CC(=O)O)NC(=O)[C@@H](NC(=O)[C@H](CC(=O)O)NC(=O)[C@H](Cc1c[nH]c2ccccc12)NC(=O)[C@H](Cc1c[nH]cn1)NC(=O)[C@H](Cc1c[nH]cn1)NC(=O)[C@H](Cc1ccc(O)cc1)NC(=O)[C@@H]1CCCN1C(=O)[C@@H](N)CCC(N)=O)[C@@H](C)O)C(C)C)[C@@H](C)O)C(=O)N[C@@H](CC(N)=O)C(=O)N[C@@H](C)C(=O)N[C@H](C(=O)N[C@@H](CO)C(=O)N[C@@H](Cc1c[nH]cn1)C(=O)NCC(=O)N[C@@H](CCC(N)=O)C(=O)N[C@H](C(=O)N[C@H](C(=O)N[C@@H](Cc1ccc(O)cc1)C(=O)O)[C@@H](C)O)[C@@H](C)O)[C@@H](C)CC` [Formula (1)], the “reactivity with the anti-HPV B19 antibody (IgG)” value in test [2] (ELISA, absorbance at 492 nm, serum diluted 200 times, peptide 10 µg/ml) was “high reactivity”. Further, the “reactivity at the initial stage of the infection (the acute stage)” value in test [2] (IgG ELISA, time after onset of illness) is given as “strong reactivity”. Moreover, in test [3], the “reactivity at the initial stage of the infection (the acute stage)” value is “strong reactivity” and the “reactivity with the anti-HPV B19 antibodies” value is “high reactivity”. In test [1] (comparison with peptide VP2 328-344), the “reactivity with the anti-HPV B19 antibodies compared with the peptide reported by Sato et al.” value is given as “extremely high”. Besides, in test [1], the “Reactivity with Anti-HPV B19 Antibodies” value is “ⓞ”. Moreover, the “reactivity with IgM among the anti-HPV antibodies” value in test [4] is listed as “high reactivity”.

The values above are taken from patent publication EP0620231B1, “Human parvovirus B19 epitope-related peptide” (Shin-Etsu Chemical Co., Ltd., priority 1993, dated 1996).
